Measurements: PubChem BioAssay AID1224920 (Broad Institute, 2016)
Values joined by “and” are separate entries in the source; they are usually repeats but may differ in a detail not shown here. Equal entries are not always repeated. Active and inactive are the calls of the source.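 How the source made its calls: active means IC50 no higher than ten times the top tested dose; inconclusive means flat fit with 30 to 70% inhibition, or poor fit; inactive means IC50 above ten times the top dose.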

System: Clostridium difficile clinical isolate growth, OD600, 24 h
Experiment: growth modulation of Clostridium difficile isolate – OD600, 9-point, retest, dose response (AID 1224920);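 further: inhibitors lower culture turbidity so OD600 falls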

Compound	IC50
O=C(Nc1ccc2c(c1)OCO2)N1C[C@@H]2N[C@H](C1)C2c1ccc(C=Cc2ccccc2)cc1 (some centres not stated)	28.3 µM
Fc1ccc(CN2[C@@H]3CNC[C@H]2C3c2ccc(-c3ccccc3)cc2)cc1 (some centres not stated)	28.6 µM
CCCNC(=O)C[C@@H]1CC[C@H]2[C@@H](COC[C@@H](O)CN2C(=O)Nc2ccc(Cl)c(Cl)c2)O1	8.45 µM
O=C(Nc1ccc(F)cc1)N1CCCCN2[C@@H](CO)[C@@H](c3ccc(-c4cccc(F)c4)cc3)[C@@H]2C1	13.2 µM
COc1ccccc1C#Cc1ccc2c(c1)[C@H]1[C@H](CCN1C(=O)c1ccc(F)cc1)[C@@H](CO)N2	< 0.5 µM
OC[C@@H]1Nc2ccc(C#Cc3cccc(F)c3)cc2[C@H]2NCC[C@@H]12	38.3 µM
Cc1cccc(-c2ccc([C@H]3[C@@H](CO)N4CCCCN(CCC(F)(F)F)C[C@@H]34)cc2)c1	50.5 µM
COc1ccccc1S(=O)(=O)N1C[C@@H]2N[C@H](C1)C2c1ccc(-c2cccc(C)c2)cc1 (some centres not stated)	53.5 µM
COc1ccc(-c2ccc(C3[C@@H]4CN(Cc5cccc(OC)c5)C[C@H]3N4)cc2)cc1 (some centres not stated)	38.5 µM and 16.2 µM
O=C(Nc1ccc(F)cc1)N1[C@@H]2CNC[C@H]1C2c1ccc(-c2ccccc2)cc1 (some centres not stated)	83.6 µM
N#Cc1cccc(-c2ccc(C3[C@@H]4CN(Cc5ccccc5)C[C@H]3N4)cc2)c1 (some centres not stated)	79.6 µM
OC[C@H]1Nc2ccc(-c3ccccc3)cc2[C@@H]2[C@H]1CCN2Cc1ccccc1F	129 µM
COc1ccccc1NC(=O)N1CCCCN2[C@@H](CO)[C@@H](c3ccc(-c4ccc(C)cc4)cc3)[C@@H]2C1	28.7 µM
Cc1ccc(-c2ccc([C@H]3[C@@H](CO)N4CCCCN(S(=O)(=O)c5cccc(C)c5)C[C@H]34)cc2)cc1	13.7 µM
COc1ccc(C#Cc2ccc([C@H]3[C@@H](CO)N4CCCCN(C(=O)Nc5cccc(F)c5)C[C@H]34)cc2)cc1	4.44 µM
O=C(Nc1cccc(F)c1)N1C[C@@H]2N[C@H](C1)C2c1ccc(-c2ccc(F)cc2)cc1 (some centres not stated)	51.8 µM
OC[C@@H]1Nc2ccc(-c3ccc(F)cc3)cc2[C@H]2[C@@H]1CCN2Cc1ccc(F)cc1	90.2 µM
O=C(C1CCC1)N1C[C@@H]2N[C@H](C1)C2c1ccc(/C=C/c2ccccc2)cc1 (some centres not stated)	74.4 µM
Cc1ccc(-c2ccc([C@@H]3[C@H](CO)N4CCCCN(S(=O)(=O)c5cccc(C)c5)C[C@@H]34)cc2)cc1	18.2 µM

Compound	IC50
O=C(Nc1ccc(C(F)(F)F)cc1)N1C[C@@H]2N[C@H](C1)C2c1ccc(-c2cccnc2)cc1 (some centres not stated)	15.2 µM
O=C(NC[C@@H]1N[C@@H](CO)[C@H]1c1ccc(C2=CCCCC2)cc1)c1ccc(F)cc1	57.8 µM
Cc1ccccc1-c1ccc(C2[C@@H]3CN(C(=O)Nc4ccc(F)cc4)C[C@H]2N3)cc1 (some centres not stated)	40.5 µM
O=C(NC[C@H]1N[C@H](CO)[C@@H]1c1ccc(C2=CCCCC2)cc1)c1cccc(F)c1	58.8 µM
N#C[C@@H]1[C@@H](c2ccc(C#Cc3cccnc3)cc2)[C@@H](CO)N1C(=O)NC1CCCC1	> 240 µM (inactive)
COc1cccc(CN2C[C@@H]3N[C@H](C2)C3c2ccc(-c3ccccc3C)cc2)c1 (some centres not stated)	5.48 µM and 13.3 µM
CCNC(=O)C[C@@H]1CC[C@@H]2[C@H](COC[C@@H](O)CN2C(=O)Nc2ccc(C(F)(F)F)cc2)O1	31.6 µM
COc1ccc(-c2ccc(C3[C@@H]4CN(C(=O)Nc5cccc(F)c5)C[C@H]3N4)cc2)cc1 (some centres not stated)	26 µM
Cc1cccc(-c2ccc(C3[C@@H]4CN(C(=O)C5CCCC5)C[C@H]3N4)cc2)c1 (some centres not stated)	62.9 µM
CCNC(=O)C[C@@H]1CC[C@@H]2[C@H](COC[C@H](O)CN2C(=O)Nc2ccc(C(F)(F)F)cc2)O1	16.1 µM
O=S(=O)(c1ccccc1F)N1C[C@@H]2N[C@H](C1)C2c1ccc(/C=C/c2ccccc2)cc1 (some centres not stated)	19.4 µM
Cc1ccccc1S(=O)(=O)N1C[C@@H]2N[C@H](C1)C2c1ccc(-c2cccc(C#N)c2)cc1 (some centres not stated)	91.2 µM
COc1cccc(CN2C[C@@H]3N[C@H](C2)C3c2ccc(-c3ccccc3F)cc2)c1 (some centres not stated)	9.26 µM and 6.5 µM
CCNC(=O)C[C@H]1CC[C@H]2[C@@H](COC[C@@H](O)CN2C(=O)Nc2ccc(C(F)(F)F)cc2)O1	8.27 µM
O=C(C[C@@H]1CC[C@@H]2[C@H](COC[C@@H](O)CN2C(=O)Nc2ccc(C(F)(F)F)cc2)O1)NC1Cc2ccccc2C1	6.53 µM
OC[C@@H]1[C@H](c2ccc(C3=CCCCC3)cc2)[C@@H]2CN(CCC(F)(F)F)CCCCN12	34.9 µM
Cc1cccc(-c2ccc(C3[C@@H]4CN(C(=O)Nc5ccc(C(F)(F)F)cc5)C[C@H]3N4)cc2)c1 (some centres not stated)	2.73 µM and 2.52 µM
O=C(Nc1ccccc1)N1CCCCN2[C@H](CO)[C@@H](c3ccc(C#Cc4ccccc4)cc3)[C@H]2C1	33.5 µM
